# Values of other authors, collected in patent publication US20230338288A1, “ASYMMETRIC CHARGED VESICLES AND METHODS OF PREPARING AND USE THEREOF” (The Research Foundation for the State University of New York, priority 2020, published 2023).
# Conditions: compared with Doxil (liposome-encapsulated Dox)
structure (smiles),measurement,value
"COc1cccc2c1C(=O)c1c(O)c3c(c(O)c1C2=O)C[C@@](O)(C(=O)CO)C[C@@H]3O[C@H]1C[C@H](N)[C@H](O)[C@H](C)O1 [Dox, Doxorubicin]","dose that can be delivered without exhibiting cardiotoxicity, fold less than with Doxil",10-50 fold
